Measurements: patent publication US12501902B2, “Compositions and methods relating to insecticides” (priority 2019, dated 2025)

System: Aedes aegypti mosquitoes
Format: in vivo
Conditions: for Synergism of the insecticide by Cha Plu (SR or words): Cha Plu at 4 μg/female; for LD50: Table 1, topical 0.2 μL, mortality at 24 hr, Cha Plu 4 μg/female where combined; for Synergism of NP by Cha Plu constituent: Table 2, 2 ug/female
From the text: Aedes aegypti mosquitoes of the insecticide susceptible Orlando strain and the pyrethroid-resistant Puerto Rico strain were reared using standard protocols and provided by the United States Department of Agriculture—Center of Medical, Agricultural, and Veterinary Entomology (Gainesville, FL). Mosquitoes were aspirated from colony cages raised from pupae and anesthetized on ice. […] Ten mosquitoes were used per concentration and at least three different biological cohorts were used in the analysis. Knockdown (defined as inability to fly or maintain posture) was recorded at 1 hr or other time points post application (depending on the experiment), whereas mortality (defined as no movement—ataxia) was recorded at 24 hr. […] SAS 9.4 was used to calculate the LD50 values using a PROC PROBIT model with Abbott's correction to account for any control mortality.

SMILES	Synergism of the insecticide by Cha Plu (SR or words)	LD50	Synergism of NP (PBO applied at 2 μg/female)	Synergism of NP by Cha Plu constituent
CCOCn1c(-c2ccc(Cl)cc2)c(C#N)c(Br)c1C(F)(F)F [Chlorfenapyr]	antagonism	9.9 ng/mg	–	–
CNC(=N[N+](=O)[O-])NCc1cnc(Cl)s1 [Clothianidin, 1-(2-Chloro-1,3-thiazol-5-ylmethyl)-3-methyl-2-nitroguanidine]	strong synergist	4.5 ng/mg	–	–
N#Cc1nn(-c2c(Cl)cc(C(F)(F)F)cc2Cl)c(N)c1[S+]([O-])C(F)(F)F (stereo not drawn) [Fipronil]	1.02	0.1 ng/mg	–	–
CCCCOCCOCCOCc1cc2c(cc1CCC)OCO2 [PBO]	–	–	3.8 fold	–
O=c1cc(-c2ccc(O)cc2)oc2c([C@@H]3O[C@H](CO)[C@@H](O)[C@H](O)[C@H]3O)c(O)cc(O)c12 [Vitexin]	–	–	–	inactive
C[C@@H]1O[C@@H](OC[C@H]2O[C@@H](Oc3c(-c4ccc(O)c(O)c4)oc4cc(O)cc(O)c4c3=O)[C@H](O)[C@@H](O)[C@@H]2O)[C@H](O)[C@H](O)[C@H]1O [rutin]	–	–	–	more than 3 fold
